Literature values in patent EP2525785B1, “SUSTAINED RELEASE TABLET FORMULATION CONTAINING ETODOLAC” (Turgut Laclari A.S., priority 2010, dated 2011).

Details: below pH 3

solubility: low solubility
Structure (SMILES): CCc1cccc2c3c([nH]c12)C(CC)(CC(=O)O)OCC3 (stereo not shown) [Etodolac, 2-(1,8-diethyl-4,9-dihydro-3H-pyrano[3,4-b]indole-1-il)acetic acid]
